Source: patent publication US20130303535A1, “NOVEL BICYCLIC HETEROCYCLIC COMPOUND” (priority 2008, published 2013)

These compounds were tested against TTX resistant Na channel of human SNS-expressing cell (SNS) (Homo sapiens, UniProt Q9Y5Y9) (assay: cell-based). Settings: CHO-K1, compound concentration 12.5 μM; read-out: SNS inhibitory rate (%).
Chain of TTX resistant Na channel of human SNS-expressing cell (SNS) (Q9Y5Y9 whole entry, looked up): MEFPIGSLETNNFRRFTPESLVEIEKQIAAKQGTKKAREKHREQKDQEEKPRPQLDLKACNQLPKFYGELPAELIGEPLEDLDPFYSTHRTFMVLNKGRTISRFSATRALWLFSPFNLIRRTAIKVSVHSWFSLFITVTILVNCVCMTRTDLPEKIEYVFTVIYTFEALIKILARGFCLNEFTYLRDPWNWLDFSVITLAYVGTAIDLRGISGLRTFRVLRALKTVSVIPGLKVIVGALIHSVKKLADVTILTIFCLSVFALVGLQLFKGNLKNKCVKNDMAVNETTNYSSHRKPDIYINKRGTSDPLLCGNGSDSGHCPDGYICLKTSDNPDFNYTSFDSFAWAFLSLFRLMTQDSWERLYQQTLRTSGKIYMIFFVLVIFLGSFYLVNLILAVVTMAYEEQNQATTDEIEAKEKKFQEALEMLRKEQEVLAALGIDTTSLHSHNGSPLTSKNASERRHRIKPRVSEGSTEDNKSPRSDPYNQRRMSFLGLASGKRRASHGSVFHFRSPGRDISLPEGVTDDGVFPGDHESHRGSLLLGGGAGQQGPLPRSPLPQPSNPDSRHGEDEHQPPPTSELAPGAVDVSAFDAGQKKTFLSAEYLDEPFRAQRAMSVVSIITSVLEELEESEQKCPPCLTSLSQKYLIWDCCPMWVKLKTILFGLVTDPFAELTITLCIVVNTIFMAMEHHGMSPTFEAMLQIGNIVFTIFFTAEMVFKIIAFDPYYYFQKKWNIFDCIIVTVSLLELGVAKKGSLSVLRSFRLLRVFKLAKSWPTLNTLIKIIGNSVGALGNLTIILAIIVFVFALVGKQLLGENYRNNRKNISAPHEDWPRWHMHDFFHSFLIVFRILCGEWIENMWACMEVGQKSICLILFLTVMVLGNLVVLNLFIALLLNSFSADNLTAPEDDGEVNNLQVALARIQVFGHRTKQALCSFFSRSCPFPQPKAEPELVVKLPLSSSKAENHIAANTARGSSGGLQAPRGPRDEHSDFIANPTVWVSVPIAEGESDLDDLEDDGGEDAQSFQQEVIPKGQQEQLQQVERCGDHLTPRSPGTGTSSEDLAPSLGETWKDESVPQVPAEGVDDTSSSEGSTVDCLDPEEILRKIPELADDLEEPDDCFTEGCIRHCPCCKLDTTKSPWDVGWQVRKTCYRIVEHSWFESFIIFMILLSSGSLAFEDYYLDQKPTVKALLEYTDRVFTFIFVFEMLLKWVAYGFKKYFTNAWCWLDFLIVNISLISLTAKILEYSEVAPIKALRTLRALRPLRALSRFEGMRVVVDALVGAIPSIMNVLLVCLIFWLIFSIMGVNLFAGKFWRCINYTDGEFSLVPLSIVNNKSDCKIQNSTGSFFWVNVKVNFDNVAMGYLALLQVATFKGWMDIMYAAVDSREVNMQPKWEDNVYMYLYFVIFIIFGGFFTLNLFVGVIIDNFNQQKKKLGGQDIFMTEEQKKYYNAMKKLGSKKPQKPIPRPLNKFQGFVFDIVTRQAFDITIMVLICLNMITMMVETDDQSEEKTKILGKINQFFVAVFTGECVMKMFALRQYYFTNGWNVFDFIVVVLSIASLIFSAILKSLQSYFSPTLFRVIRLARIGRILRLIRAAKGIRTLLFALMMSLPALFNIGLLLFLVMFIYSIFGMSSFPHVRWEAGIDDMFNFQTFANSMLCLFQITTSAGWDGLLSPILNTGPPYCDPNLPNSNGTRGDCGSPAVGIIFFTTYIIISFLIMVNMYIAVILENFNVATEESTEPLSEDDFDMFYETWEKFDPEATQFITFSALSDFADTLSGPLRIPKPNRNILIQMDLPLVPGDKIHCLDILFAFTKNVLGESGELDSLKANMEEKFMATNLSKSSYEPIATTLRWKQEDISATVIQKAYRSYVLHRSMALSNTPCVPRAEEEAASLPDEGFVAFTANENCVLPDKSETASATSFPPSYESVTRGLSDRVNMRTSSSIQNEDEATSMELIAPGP

SMILES | inhibition at 12.5 µM [%]
CCOCCn1c(CN[C@@H](C)C(N)=O)nc2ccc(Oc3ccccc3)cc21 [Example 1, N^2-{[1-(2-ethoxyethyl)-6-phenoxy-1H-benzimidazol-2-yl]methyl}-L-alaninamide] | 45.8
CCOCCn1c(CNCC(N)=O)nc2ccc(Oc3ccccc3)cc21 [Example 2, N^2-{[1-(2-ethoxyethyl)-6-phenoxy-1H-benzimidazol-2-yl]methyl}glycinamide] | 8.4
CCOCCn1c(CNCC(N)=O)nc2ccc(Oc3ccc(F)cc3)cc21 [Example 3, N^2-{[1-(2-ethoxyethyl)-6-(4-fluorophenoxy)-1H-benzimidazol-2-yl]methyl}glycinamide] | 12.9
CCOCCn1c(CN[C@H](C(N)=O)C(C)C)nc2ccc(Oc3ccc(F)cc3)cc21 [Example 4, N^2-{[1-(2-ethoxyethyl)-6-(4-fluorophenoxy)-1H-benzimidazol-2-yl]methyl}-L-valinamide] | 66.8
CCOCCn1c(CNC(C)(C)C(N)=O)nc2ccc(Oc3ccc(F)cc3)cc21 [Example 5, N^2-{[1-(2-ethoxyethyl)-6-(4-fluorophenoxy)-1H-benzimidazol-2-yl]methyl}-2-methylalaninamide] | 59.3
C[C@H](NCc1nc2ccc(Oc3ccc(F)cc3)cc2n1C1CCOCC1)C(N)=O [Example 6] | 77.8
C[C@H](NCc1nc2ccc(Oc3ccc(F)cc3)cc2n1C1CC1)C(N)=O [Example 7] | 83.1
CC(C)(NCc1nc2ccc(Oc3ccc(F)cc3)cc2n1C1CCOCC1)C(N)=O [Example 8] | 90.4
CC(C)n1c(CN[C@@H](C)C(N)=O)nc2ccc(Oc3ccccc3)cc21 [Example 9] | 28.9
CC(C)n1c(CNCC(N)=O)nc2ccc(Oc3ccccc3)cc21 [Example 10] | 16.3
C[C@H](NCc1nc2ccc(Oc3ccccc3)cc2n1C1CCC1)C(N)=O [Example 11] | 63
NC(=O)CNCc1nc2ccc(Oc3ccccc3)cc2n1C1CCC1 [Example 12] | 17
C[C@H](NCc1nc2ccc(Oc3ccccc3)cc2n1CC1CCOCC1)C(N)=O [Example 13] | 29.8
NC(=O)CNCc1nc2ccc(Oc3ccccc3)cc2n1CC1CCOCC1 [Example 14] | 16.4
CCOCCn1c(CN2CCC[C@H]2C(N)=O)nc2ccc(Oc3ccc(F)cc3)cc21 [Example 15] | 95.7
NC(=O)[C@@H]1CCCN1Cc1nc2ccc(Oc3ccccc3)cc2n1CC1CCOCC1 [Example 16] | 96.2
C[C@H](NCc1nc2ccc(Oc3ccc(F)cc3)cc2n1C1CCC1)C(N)=O [Example 17] | 89.3
NC(=O)CNCc1nc2ccc(Oc3ccc(F)cc3)cc2n1C1CCC1 [Example 18] | 14.2
NC(=O)[C@@H]1CCCN1Cc1nc2ccc(Oc3ccccc3)cc2n1C[C@H]1CCCO1 [Example 19] | 100
C[C@H](NCc1nc2ccc(Oc3ccccc3)cc2n1C[C@H]1CCCO1)C(N)=O [Example 20] | 7.2
NC(=O)[C@@H]1CCCN1Cc1nc2ccc(Oc3ccccc3)cc2n1C[C@@H]1CCCO1 [Example 21] | 100
C[C@H](NCc1nc2ccc(Oc3ccccc3)cc2n1C[C@@H]1CCCO1)C(N)=O [Example 22] | 16.4
COCCCn1c(CNCC(N)=O)nc2ccc(Oc3ccccc3)cc21 [Example 23] | 0.8
COCCCn1c(CN[C@@H](C)C(N)=O)nc2ccc(Oc3ccccc3)cc21 [Example 24] | 5.8
NC(=O)CNCc1nc2ccc(Oc3ccccc3)cc2n1C1CCCC1 [Example 25] | 0
C[C@H](NCc1nc2ccc(Oc3ccccc3)cc2n1C1CCCC1)C(N)=O [Example 26] | 26.6
CCOCCn1c(CN[C@@H](C)C(N)=O)nc2ccc(Oc3ccc(Cl)cc3)cc21 [Example 27] | 78.2

SMILES | inhibition at 12.5 µM [%]
CCOCCn1c(CNCC(N)=O)nc2ccc(Oc3ccc(Cl)cc3)cc21 [Example 28] | 27.4
CCOCCn1c(CN[C@@H](C)C(N)=O)nc2ccc(Oc3cccc(Cl)c3)cc21 [Example 29] | 27
CCOCCn1c(CNC(C)(C)C(N)=O)nc2ccc(Oc3cccc(Cl)c3)cc21 [Example 30] | 31.5
CCOCCn1c(CN[C@@H](C)C(N)=O)nc2ccc(Oc3ccccc3Cl)cc21 [Example 31] | 92.1
CCOCCn1c(CNC(C)(C)C(N)=O)nc2ccc(Oc3ccccc3Cl)cc21 [Example 32] | 91.2
CC(C)(NCc1nc2ccc(Oc3ccccc3)cc2n1C1CCC1)C(N)=O [Example 33] | 32.9
C[C@@H](NCc1nc2ccc(Oc3ccccc3)cc2n1C1CCC1)C(N)=O [Example 34] | 6.7
CC(C)(NCc1nc2ccc(Oc3ccccc3)cc2n1C[C@@H]1CCCO1)C(N)=O [Example 35] | 10.8
CCOCCn1c(CN[C@H](C)C(N)=O)nc2ccc(Oc3ccccc3)cc21 [Example 36] | 0.4
CCOCCn1c(CN[C@@H](CC)C(N)=O)nc2ccc(Oc3ccccc3)cc21 [Example 37] | 42.3
CCOCCn1c(CN[C@H](C(N)=O)C(C)C)nc2ccc(Oc3ccccc3)cc21 [Example 38] | 48.8
CCOCCn1c(CNC(C)(C)C(N)=O)nc2ccc(Oc3ccccc3)cc21 [Example 39] | 48.8
CCOCCn1c(CN(C)CC(N)=O)nc2ccc(Oc3ccccc3)cc21 [Example 40] | 95.8
CCOCCn1c(CN[C@@H](CC)C(N)=O)nc2ccc(Oc3ccc(F)cc3)cc21 [Example 41] | 99.7
CCOCCn1c(CN[C@@H](C)C(N)=O)nc2ccc(Oc3ccc(C)cc3)cc21 [Example 42] | 76.7
CCOCCn1c(CN[C@@H](C)C(N)=O)nc2ccc(Oc3ccc(OC(F)(F)F)cc3)cc21 [Example 43] | 61
CCOCCn1c(CN[C@@H](C)C(N)=O)nc2ccc(Oc3cc(F)c(F)c(F)c3)cc21 [Example 44] | 84.9
CCOCCn1c(CN[C@@H](C)C(N)=O)nc2ccc(Oc3ccc(C#N)cc3)cc21 [Example 45] | 40.6
CCOCCn1c(CN[C@@H](C)C(N)=O)nc2ccc(Oc3ccc(C(F)(F)F)cc3)cc21 [Example 46] | 95.5
CCOCCCn1c(CN[C@@H](C)C(N)=O)nc2ccc(Oc3ccc(F)cc3)cc21 [Example 47] | 86.6
CCOCCn1c(CN[C@@H](C)C(N)=O)nc2ccc(Oc3ccc(F)c(F)c3)cc21 [Example 48] | 96.7
CCOCCn1c(CN[C@@H](C)C(N)=O)nc2ccc(Oc3ccc(F)cc3F)cc21 [Example 49] | 94.8
C[C@H](NCc1nc2ccc(Oc3ccc(F)cc3)cc2n1CC(C)(C)O)C(N)=O [Example 50] | 86.8
C[C@H](NCc1nc2ccc(Oc3ccc(F)cc3)cc2n1C[C@H]1CCCO1)C(N)=O [Example 51] | 90.5
CCOCCn1c(CN[C@@H](C)C(N)=O)nc2ccc(Oc3ccccc3F)cc21 [Example 52] | 89.7
CCOCCn1c(CN[C@@H](C)C(N)=O)nc2ccc(Oc3cccc(F)c3)cc21 [Example 53] | 94
CCOCCn1c(CN[C@H](C)C(N)=O)nc2ccc(Oc3ccc(F)cc3)cc21 [Example 54] | 95.7
